Test results published in ChEMBL document CHEMBL1134339, “New 1-aryl-3-(4-arylpiperazin-1-yl)propane derivatives, with dual action at 5-HT1A serotonin receptors and serotonin transporter, as a new class of antidepressants” (J Med Chem, 2001).

Key:
Mus musculus [1] = assay: Effect on immobility time in the forced swimming test (FST) in mice at 10 mg/kg dose; assay type: functional
Rattus norvegicus [2] = assay: Effect on helpless behavior in rats and the number of escape failures was determined in shuttle-box session-1 (SB-1) at 1 mg/kg dose; assay type: functional
Mus musculus [3] = assay: Effect on immobility time in the forced swimming test (FST) in mice at 0.1 mg/kg dose; assay type: functional
[4] = target: 5-hydroxytryptamine receptor 2A (Rattus norvegicus, UniProt P14842); assay: Affinity at 5-hydroxytryptamine 2 receptor from rat frontal cortex using [3H]ketanserin as radioligand (For ketanserin = Ki(nM)=0.7+/-0.09); assay type: tissue-based
5-hydroxytryptamine receptor 2A, sequence (P14842 whole entry): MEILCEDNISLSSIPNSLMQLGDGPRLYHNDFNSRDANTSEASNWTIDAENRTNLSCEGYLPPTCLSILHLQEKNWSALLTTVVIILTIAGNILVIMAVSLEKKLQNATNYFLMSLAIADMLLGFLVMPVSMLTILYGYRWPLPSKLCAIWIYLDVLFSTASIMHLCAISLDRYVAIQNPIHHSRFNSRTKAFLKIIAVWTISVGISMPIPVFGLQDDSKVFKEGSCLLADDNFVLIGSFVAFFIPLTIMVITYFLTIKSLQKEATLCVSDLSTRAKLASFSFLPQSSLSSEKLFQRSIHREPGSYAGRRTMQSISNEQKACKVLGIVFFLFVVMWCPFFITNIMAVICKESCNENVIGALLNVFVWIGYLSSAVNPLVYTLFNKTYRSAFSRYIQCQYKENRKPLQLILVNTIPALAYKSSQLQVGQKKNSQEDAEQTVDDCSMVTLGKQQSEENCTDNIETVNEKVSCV

[5] = target: T1, Adrenergic receptor alpha-2 (Rattus norvegicus, UniProt P22086+P19328+P22909); assay: Affinity towards alpha-2 adrenoceptor from rat cortex using [3H]-clonidine as radioligand (For clonidine Ki(nM)= […]+/-[…])
T1 sequence (P22086 whole entry): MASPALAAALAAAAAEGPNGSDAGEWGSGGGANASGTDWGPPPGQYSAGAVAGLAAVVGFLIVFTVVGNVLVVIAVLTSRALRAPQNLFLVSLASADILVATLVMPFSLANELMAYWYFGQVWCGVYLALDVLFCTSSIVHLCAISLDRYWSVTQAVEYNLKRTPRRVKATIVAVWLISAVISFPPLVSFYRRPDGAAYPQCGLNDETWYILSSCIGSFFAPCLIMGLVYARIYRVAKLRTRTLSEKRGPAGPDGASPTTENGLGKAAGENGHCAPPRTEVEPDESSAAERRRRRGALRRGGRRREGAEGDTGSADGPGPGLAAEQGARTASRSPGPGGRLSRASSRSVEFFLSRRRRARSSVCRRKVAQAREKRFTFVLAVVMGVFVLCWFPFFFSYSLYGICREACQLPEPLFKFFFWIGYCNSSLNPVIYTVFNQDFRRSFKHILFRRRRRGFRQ
T1 sequence (P19328 whole entry): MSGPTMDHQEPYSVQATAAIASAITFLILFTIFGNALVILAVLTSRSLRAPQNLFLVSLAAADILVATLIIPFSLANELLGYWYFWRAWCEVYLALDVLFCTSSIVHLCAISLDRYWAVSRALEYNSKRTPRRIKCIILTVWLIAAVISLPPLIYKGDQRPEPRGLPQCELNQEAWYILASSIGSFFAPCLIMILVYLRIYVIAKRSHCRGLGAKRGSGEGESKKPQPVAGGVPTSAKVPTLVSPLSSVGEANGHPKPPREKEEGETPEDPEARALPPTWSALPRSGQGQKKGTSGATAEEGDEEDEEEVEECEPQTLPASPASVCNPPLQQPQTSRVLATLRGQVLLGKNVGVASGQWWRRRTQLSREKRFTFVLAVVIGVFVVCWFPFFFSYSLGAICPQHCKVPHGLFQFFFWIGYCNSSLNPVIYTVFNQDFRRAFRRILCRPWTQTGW
T1 sequence (P22909 whole entry): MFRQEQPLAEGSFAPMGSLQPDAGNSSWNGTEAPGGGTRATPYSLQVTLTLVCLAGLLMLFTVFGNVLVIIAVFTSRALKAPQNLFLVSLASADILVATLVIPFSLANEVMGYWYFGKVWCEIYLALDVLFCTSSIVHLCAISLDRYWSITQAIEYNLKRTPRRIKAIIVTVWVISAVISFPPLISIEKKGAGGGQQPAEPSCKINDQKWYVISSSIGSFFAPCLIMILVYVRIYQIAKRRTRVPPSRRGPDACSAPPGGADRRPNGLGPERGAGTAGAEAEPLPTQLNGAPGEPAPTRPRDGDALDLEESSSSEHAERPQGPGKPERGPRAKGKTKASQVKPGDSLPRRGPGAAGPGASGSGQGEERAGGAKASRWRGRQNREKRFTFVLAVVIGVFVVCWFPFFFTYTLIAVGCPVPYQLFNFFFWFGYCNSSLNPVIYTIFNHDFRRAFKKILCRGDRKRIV

Mus musculus [6] = assay: Time-dependent effect on 8-OH-DPAT-induced hypothermia (change in body temperature) after 15 min, in mice at 5 mg/kg dose; assay type: functional
Adrenergic receptor beta = Adrenergic receptor beta (Rattus norvegicus, UniProt P18090+P10608+P26255)
[7] = target: Muscarinic acetylcholine receptor; assay: Affinity at muscarinic receptor from rat cortex using [3H]-QNB as radioligand (For atropine Ki(nM)= 3.5+/-0.3)
Mus musculus [8] = assay: Antidepressant-like activity in the forced swimming test (FST) in mice at 0.1 mg/kg dose; Antidepressant like activity; assay type: functional
Mus musculus [9] = assay: Antidepressant-like activity in the forced swimming test (FST) in mice at 10 mg/kg dose; Antidepressant like activity; assay type: functional
Mus musculus [10] = assay: Antidepressant-like activity in the forced swimming test (FST) in mice at 1 mg/kg dose; Antidepressant like activity; assay type: functional
[11] = target: Sodium-dependent serotonin transporter (Rattus norvegicus, UniProt P31652); assay: Binding affinity towards Serotonin transporter from rat cortex measured using [3H]paroxetine; conditions: read-out: Ki
Sodium-dependent serotonin transporter, sequence (P31652 whole entry): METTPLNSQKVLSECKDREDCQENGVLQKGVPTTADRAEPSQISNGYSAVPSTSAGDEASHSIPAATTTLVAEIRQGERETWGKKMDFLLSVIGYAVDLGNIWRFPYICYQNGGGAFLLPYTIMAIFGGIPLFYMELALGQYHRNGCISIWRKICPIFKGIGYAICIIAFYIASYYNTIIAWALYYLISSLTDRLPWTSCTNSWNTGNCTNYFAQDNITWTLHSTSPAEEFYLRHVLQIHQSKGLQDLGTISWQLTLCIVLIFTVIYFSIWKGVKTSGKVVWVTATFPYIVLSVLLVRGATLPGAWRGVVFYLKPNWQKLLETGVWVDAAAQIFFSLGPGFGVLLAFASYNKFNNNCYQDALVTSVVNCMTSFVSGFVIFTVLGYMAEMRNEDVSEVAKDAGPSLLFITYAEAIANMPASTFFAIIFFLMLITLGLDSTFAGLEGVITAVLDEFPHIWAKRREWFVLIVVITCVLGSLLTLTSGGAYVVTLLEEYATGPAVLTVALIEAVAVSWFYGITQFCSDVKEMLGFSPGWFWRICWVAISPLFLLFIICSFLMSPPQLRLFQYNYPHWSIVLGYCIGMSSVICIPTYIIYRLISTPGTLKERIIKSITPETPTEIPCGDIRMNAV

Mus musculus [12] = assay: Time-dependent effect on 8-OH-DPAT-induced hypothermia (change in body temperature) after 30 min, in mice at 0.1 mg/kg dose; assay type: functional
[13] = target: T2, 5-hydroxytryptamine receptor 3A (Rattus norvegicus, UniProt P35563); assay: Affinity at 5-hydroxytryptamine 3 receptor from rat frontal cortex using [3H]granisetron as radioligand (For granisetron = Ki(nM)=0.3+/-0.01); assay type: tissue-based
T2 sequence (P35563 whole entry): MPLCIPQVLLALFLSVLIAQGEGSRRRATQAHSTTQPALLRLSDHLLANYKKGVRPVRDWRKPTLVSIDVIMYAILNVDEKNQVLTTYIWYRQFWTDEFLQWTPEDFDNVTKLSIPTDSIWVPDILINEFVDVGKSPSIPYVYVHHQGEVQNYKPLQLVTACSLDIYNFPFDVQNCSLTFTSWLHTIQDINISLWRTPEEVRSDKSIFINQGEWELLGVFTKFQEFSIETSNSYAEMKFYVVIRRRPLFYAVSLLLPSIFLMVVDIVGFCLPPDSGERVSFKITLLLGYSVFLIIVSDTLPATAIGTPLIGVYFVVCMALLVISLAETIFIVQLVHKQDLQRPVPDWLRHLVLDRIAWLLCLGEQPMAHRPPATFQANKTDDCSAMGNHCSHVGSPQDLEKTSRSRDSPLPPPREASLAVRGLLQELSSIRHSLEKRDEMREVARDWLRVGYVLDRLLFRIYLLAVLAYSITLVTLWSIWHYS

Mus musculus [14] = assay: Effect on immobility time in the forced swimming test (FST) in mice at 0 mg/kg dose; assay type: functional
Rattus norvegicus [15] = assay: Effect on helpless behavior in rats and the number of escape failures was determined in shuttle-box session-3 (SB-3) at 1 mg/kg dose; assay type: functional
D(2) dopamine receptor = D(2) dopamine receptor (Rattus norvegicus, UniProt P61169); assay: Affinity at dopamine D2 receptor from rat striatum using [3H]spiroperidol as radioligand (For haloperidol Ki(nM)= 1.5+/-1.2); assay type: tissue-based
D(2) dopamine receptor, sequence (P61169 whole entry): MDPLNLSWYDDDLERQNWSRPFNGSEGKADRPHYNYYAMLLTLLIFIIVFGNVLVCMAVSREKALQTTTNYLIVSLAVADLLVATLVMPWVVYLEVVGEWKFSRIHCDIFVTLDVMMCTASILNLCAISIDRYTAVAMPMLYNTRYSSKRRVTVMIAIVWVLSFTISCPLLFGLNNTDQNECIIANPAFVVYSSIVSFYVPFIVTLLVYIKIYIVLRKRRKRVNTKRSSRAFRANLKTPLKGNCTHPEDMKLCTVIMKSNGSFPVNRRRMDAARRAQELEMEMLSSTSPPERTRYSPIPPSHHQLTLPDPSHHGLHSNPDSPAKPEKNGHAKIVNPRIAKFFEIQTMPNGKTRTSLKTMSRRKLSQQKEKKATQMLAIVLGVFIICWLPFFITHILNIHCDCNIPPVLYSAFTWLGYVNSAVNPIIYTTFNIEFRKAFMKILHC

Mus musculus [16] = assay: Time-dependent effect on 8-OH-DPAT-induced hypothermia (change in body temperature) after 30 min, in mice at 5 mg/kg dose; assay type: functional

Ki [11] | Compound | Immobility time (Mus musculus [1]) | No. of escape failures (Rattus norvegicus [2]) | Immobility time (Mus musculus [3]) | Ki [4] | Ki [5] | Temperature change (Mus musculus [6]) | Ki (Adrenergic receptor beta) | Ki [7] | Activity (Mus musculus [8]) | Activity (Mus musculus [9]) | Activity (Mus musculus [10]) | Temperature change (Mus musculus [12]) | Ki [13] | Immobility time (Mus musculus [14]) | No. of escape failures (Rattus norvegicus [15]) | Ki (D(2) dopamine receptor) | Temperature change (Mus musculus [16])
150 nM | COc1ccccc1N1CCN(CCC(Oc2cccc3ccccc23)c2ccsc2)CC1 (stereo not drawn) | <91.1 s | 5.8 | 194.4 s | > 5000 nM | 5 µM | -2.73 °C | > 5000 nM | > 5 µM | 0% | 49% | 48% | -1.54 °C | > 5 µM | 157.1 s | 0.5 | 2500 nM | –
105 nM | COc1ccccc1N1CCN(CCC(=O)c2csc3ccccc23)CC1 | <86.6 s | <9.8 | 141.4 s | – | – | -2.53 °C | – | – | – | – | – | -1.66 °C | – | 169.4 s | <2.8 | – | <-1.47 °C

Compound | Ki [11] | Immobility time (Mus musculus [1]) | No. of escape failures (Rattus norvegicus [2]) | Immobility time (Mus musculus [3]) | Ki [4] | Ki [5] | Temperature change (Mus musculus [6]) | Ki (Adrenergic receptor beta) | Ki [7] | Activity (Mus musculus [8]) | Activity (Mus musculus [9]) | Activity (Mus musculus [10]) | Temperature change (Mus musculus [12]) | Ki [13] | Immobility time (Mus musculus [14]) | No. of escape failures (Rattus norvegicus [15]) | Ki (D(2) dopamine receptor) | Temperature change (Mus musculus [16])
COc1ccccc1N1CCN(CCC(O)c2csc3ccccc23)CC1 (stereo not drawn) | 20 nM | 143.5 s | 8 | <99.5 s | 250 nM | 2 µM | -2.2 °C | 750 nM | > 5 µM | 35% | 1% | 33% | -1.3 °C | > 5 µM | 145 s | – | 150 nM | -2.5 °C
